According to US20130324617A1, “CROWN-LIKE STRUCTURES AS A BIOMARKER FOR CANCER RISK AND CANCER PROGNOSIS” (MEMORIAL SLOAN-KETTERING CANCER CENTER, priority 2011, published 2013):

Tests used:
NF-κB = assay: NF-κB-luciferase reporter assay in THP-1 cells; type: cell-based, human; conditions: for NF-κB-luciferase activity in THP-1 cells: 10 μmol/L fatty acid, 24 hours
Procedure: NF-κB-luciferase (Panomics) and pSVβgal (Promega) were transfected into THP-1 cells using the Amaxa system. After 24 hours of incubation, the medium was replaced with basal medium. The activities of luciferase (BD Biosciences) and β-galactosidase were measured in cellular extracts. For siRNA transfections, THP-1 cells were plated at 60% confluence and transfected with non-targeting siRNA or siRNA targeting TNF-α, IL-1β, Cox-2 and p65 using Dharmafect 4 for 36 hours. Subsequently, the cells were treated with vehicle or saturated fatty acids.
To investigate the potential role of the transcription factor NF-κB in saturated fatty acid-mediated induction of TNF-α, IL-1β and Cox-2 in macrophages, transient transfection assays were performed in saturated fatty acid-treated THP-1 cells with an NF-κB-luciferase reporter construct and pSV-βgal constructs.
The effects of BAY11-7082, a pharmacological inhibitor of NF-κB, were evaluated. THP-1 cells were transiently transfected with NF-κB-luciferase and pSV-βgal constructs and cells were subsequently treated with vehicle, 10 μmol/L SA or SA plus 0, 5 or 10 μmol/L of BAY11-7082 (InvivoGen) for 12 hours. NF-κB luciferase activity was normalized to β-galactosidase activity. Additionally, THP-1 cells were treated with vehicle (control), 10 μmol/L SA or SA plus 10 μmol/L BAY11-7082 for 24 hours. Levels of TNF-α protein, IL-1β protein and PGE2 in the CM were determined by enzyme immunoassay. Preadipocytes were treated with THP-1 cell-derived CM for 24 hours prior to measurements of aromatase mRNA and activity.

[1] = test system: aromatase in human preadipocytes; assay: Induction of aromatase mRNA and activity in preadipocytes by macrophage-derived conditioned medium; type: cell-based; conditions: for aromatase mRNA and activity in human preadipocytes: preadipocytes treated 24 hours
Procedure: Human visceral preadipocytes (ScienCell™) were grown in preadipocyte medium containing 10% FBS.
(§1) THP-1 cells (ATCC) were maintained in RPMI-1640 medium (Invitrogen) supplemented with 10% FBS. These cells were treated with phorbol 12-myristate 13-acetate (10 ng/mL) overnight to differentiate them into macrophages. Human monocytes (Astarte Biologics) were activated with IFNγ (15 ng/mL) and lipopolysaccharide (15 ng/mL) in RPMI-1640 medium for 4 days. THP-1 cells and blood monocyte-derived macrophages were then treated with saturated fatty acids (Nu-CheK Prep) as indicated. To prepare conditioned medium (CM), the cells were treated with saturated fatty acids for 12 hours in medium comprised of RPMI-1640 and preadipocyte medium (ScienCellTMResearch Laboratories) at a 1:1 ratio. Following treatment with fatty acids, the medium was removed and cells were washed thrice with PBS to remove fatty acids. Subsequently, fresh medium was added for 24 hours. This CM was then collected and centrifuged at 4,000 rpm for 30 minutes to remove cell debris. CM was used to treat preadipocytes.
(§2) Total RNA was isolated using the RNeasy mini kit (Qiagen). For tissue analyses, poly A RNA was prepared with an Oligotex mRNA mini kit (Qiagen). Poly A RNA was reversed transcribed using murine leukemia virus reverse transcriptase and oligo (dT)16 primer. The resulting cDNA was then used for amplification using primers listed Table 1. GAPDH and β-actin were used as endogenous normalization controls for tissue and cell culture analyses, respectively. Real-time PCR was performed using 2×SYBR green PCR master mix on a 7500 Real-time PCR system (Applied Biosystems). Relative fold induction was determined using the ddCT (relative quantification) analysis protocol.
To determine aromatase activity, microsomes were prepared from cell lysates and tissues by differential centrifugation using established methods (Subbaramaiah 2006). Aromatase activity was quantified by measurement of the tritiated water released from 1β-[^3H]-androstenedione (Subbaramaiah 2008). The reaction was also performed in the presence of letrozole, a specific aromatase inhibitor, as a specificity control and without NADPH as a background control. Aromatase activity was normalized to protein concentration.
Further, to investigate whether conditioned medium from saturated fatty acid-treated macrophages induced aromatase in preadipocytes, THP-1 cells or human blood monocyte-derived macrophages were treated with 0, 2.5, 5 or 10 μmol/L LA, MA, PA or SA as described above to generate CM (n=6). This CM was used to treat preadipocytes for 24 hours. Aromatase mRNA and activity levels were determined. Treatment with CM derived from either saturated fatty acid-treated THP-1 cells or human blood monocyte-derived macrophages induced aromatase mRNA and activity in human preadipocytes. Neutralizing either TNF-α or IL-1β by incubating the CM from SA-treated cells with neutralizing antibodies to TNF-α, IL-1β or control IgG overnight at 4° C. attenuated CM-mediated induction of aromatase in preadipocytes.
Next, THP-1 cells were transfected as indicated with control siRNA or TNF-α siRNA, IL-1β siRNA or Cox-2 siRNA for 36 hours. Cells were then treated with vehicle (control) or 10 μmol/L SA as described above. The levels of TNFα, IL-1β and PGE2 were measured by enzyme immunoassay in the CM. Cox-2 protein abundance was determined by immunoblotting of whole cell lysates using β-actin was used as a loading control. Preadipocytes were treated with THP-1 cell-derived CM for 24 hours prior to measurements of aromatase mRNA and activity. […] Following treatment, the medium was removed and cells were washed. Subsequently, fresh medium was added for 24 hours to generate CM. PGE2 production was measured in CM. Preadipocytes were treated with THP-1 cell-derived CM for 24 hours prior to measurements of aromatase mRNA and activity. […]

THP-1 cells = assay: Pro-inflammatory mediators (TNF-α, IL-1β, Cox-2, PGE2) in saturated fatty acid-treated THP-1 cells; type: cell-based, human; conditions: for induction of TNF-α in THP-1 cells: 0, 2.5, 5, 10 μmol/L saturated fatty acid, 24 hours, real-time PCR
Procedure: as §1
(§3) Lysates were prepared by treating cells with lysis buffer, sonicating for 20 seconds on ice and centrifuging at 10,000×g for 10 minutes to remove particulate material. The protein concentration of the supernatant was measured by the method of Lowry et al. (Lowry 1951). SDS-PAGE was done under reducing conditions on 10% polyacrylamide gels. The resolved proteins were transferred onto nitrocellulose sheets and incubated with primary antisera. Antibodies to phospho-p65, p65, histone H3, Cox-2 and β-actin were used (Santa Cruz Biotechnology). Secondary antibody to IgG conjugated to horseradish peroxidase was used. The blot was probed with the ECL Western blot detection system.
as §2
LC/MS/MS analyses were performed using a Tandem Quadrupole Mass Spectrometer (Agilent) equipped with an Agilent 1200 binary pump HPLC system using a modified version of the method of Yang 2006. PGs were chromatographically separated using a Gemini 3-μm C6-phenyl 4.6×100 mm analytical column (Phenomenex). The mobile phase consisted of 0.1% formic acid in water (mobile phase A) and 0.1% formic acid in acetonitrile (mobile phase B). The chromatographic baseline resolution for the PGs of interest was achieved using a linear gradient that went from 20% to 40% mobile phase B for 12 minutes and then from 40% to 70% for 8 minutes. This was then increased to 90% mobile phase B over the next 2 minutes and kept at this level for an additional 3 minutes. The flow rate was 0.8 mL/min with a column temperature of 40° C. The mass spectrometer was operated in negative electrospray ionization mode with capillary voltage of 2.9 kV, a cone gas flow rate of […] and a shear gas flow rate of 12 mL/minute at 350° C. PGs were detected and quantified using multiple reaction mode monitoring of the transitions m/z 351 to 271 for PGE2 and m/z 355 to 275 for PGE2-d4. The results are expressed as nanograms of PGE2 per mg of protein. For measurements of PGE2 in cell culture media, EIA kits were used (Cayman Chemicals).
TNF-α and IL-1β levels were quantified in cell culture media using EIA kits (R & D systems).
Experiments were carried out in vitro to determine if saturated fatty acids stimulated the production of pro-inflammatory molecules by macrophages leading, in turn, to elevated aromatase expression in preadipocytes.

p65 = assay: Immunoblotting of phospho-p65 and p65 in THP-1 cells; type: cell-based, human; conditions: 30 minutes; for phosphorylation of p65: THP-1 cells, 0, 2.5, 5 or 10 μmol/L fatty acid
Procedure: as §3
The abundance of phospho-p65 was determined by immunoblotting in cytosolic and nuclear preparations of cells treated with vehicle (control) or 10 μmol/L SA for 30 minutes. β-actin and histone H3 were used as cytosolic and nuclear markers, respectively.

NF-κB binding sites = assay: Electrophoretic mobility shift assay of nuclear protein from THP-1 cells; type: cell-based, human; conditions: THP-1 cells, 0, 2.5, 5 or 10 μmol/L SA, 1 hour; EMSA
Procedure: Nuclear extracts were prepared from mouse mammary glands using an EMSA kit (Promega). For binding studies, oligonucleotides containing NF-κB sites (Active Motif) were used. The complementary oligonucleotides were annealed in 20 mmol/L Tris (pH 7.6), 50 mmol/L NaCl, 10 mmol/L MgCl2, and 1 mmol/L dithiothreitol. The annealed oligonucleotide was phosphorylated at the 5′ end with [γ-^32P]ATP and T4 polynucleotide kinase. The binding reaction was performed by incubating 5 μg of nuclear protein in 20 mmol/L HEPES (pH 7.9), 10% glycerol, 300 μg of bovine serum albumin, and 1 μg of poly(dI·dC) in a final volume of 10 μL for 10 minutes at 25° C. The labeled oligonucleotides were added to the reaction mixture and allowed to incubate for an additional 20 minutes at 25° C. The samples were electrophoresed on a 4% nondenaturing polyacrylamide gel. The gel was then dried and subjected to autoradiography at −80° C.
DNA-protein binding complexes to NF-κB binding sites were examined by electrophoretic mobility shift assays (EMSA). Nuclear protein was prepared from THP-1 cells treated with 0, 2.5, 5 or 10 μmol/L of SA for 1 hour. In another experiment, nuclear protein was prepared from THP-1 cells treated with vehicle or 10 μmol/L SA for 1 hour, and the nuclear protein was incubated with normal IgG or different concentrations of antibodies to p65. […]

[2] = 10 μmol/L SA plus 10 μmol/L BAY11-7082, 24 hours, enzyme immunoassay
[3] = CM from THP-1 cells treated with 0, 2.5, 5 or 10 μmol/L fatty acid
[4] = CM from human blood monocyte-derived macrophages treated with 0, 2.5, 5 or 10 μmol/L fatty acid

SMILES	ability of macrophage-derived CM to induce aromatase expression and activity ([1]; following NF-κB inhibition of THP-1 cells with BAY11-7082, preadipocytes treated with CM 24 hours)	aromatase mRNA and activity in human preadipocytes [1, 3]	aromatase mRNA and activity in human preadipocytes [1, 4]	SA-mediated activation of NF-κB (NF-κB luciferase activity) (NF-κB; 10 μmol/L SA plus 0, 5 or 10 μmol/L BAY11-7082, 12 hours)	production of increased amounts of IL-1β in CM (THP-1 cells; [2])	production of increased amounts of PGE2 in CM (THP-1 cells; [2])	production of increased amounts of TNF-α in CM (THP-1 cells; [2])	induction of TNF-α in THP-1 cells (THP-1 cells)	phosphorylation of p65 (p65)	NF-κB-luciferase activity in THP-1 cells (NF-κB)	translocation of p65 from cytosol to nucleus (p65; THP-1 cells, 10 μmol/L SA)	binding of nuclear protein to a 32P-labeled NF-κB consensus sequence (NF-κB binding sites)
Cc1ccc(S(=O)(=O)/C=C/C#N)cc1 [BAY11-7082]	suppressed			suppressed	suppressed	suppressed	suppressed					
CCCCCCCCCCCC(=O)O [LA, lauric acid]		induced	induced					dose-dependent induction				

More lines, main results first:

ability of macrophage-derived CM to induce aromatase expression and activity ([1]; following NF-κB inhibition of THP-1 cells with BAY11-7082, preadipocytes treated with CM 24 hours)	aromatase mRNA and activity in human preadipocytes [1, 3]	aromatase mRNA and activity in human preadipocytes [1, 4]	SMILES	SA-mediated activation of NF-κB (NF-κB luciferase activity) (NF-κB; 10 μmol/L SA plus 0, 5 or 10 μmol/L BAY11-7082, 12 hours)	production of increased amounts of IL-1β in CM (THP-1 cells; [2])	production of increased amounts of PGE2 in CM (THP-1 cells; [2])	production of increased amounts of TNF-α in CM (THP-1 cells; [2])	induction of TNF-α in THP-1 cells (THP-1 cells)	phosphorylation of p65 (p65)	NF-κB-luciferase activity in THP-1 cells (NF-κB)	translocation of p65 from cytosol to nucleus (p65; THP-1 cells, 10 μmol/L SA)	binding of nuclear protein to a 32P-labeled NF-κB consensus sequence (NF-κB binding sites)
	induced	induced	CCCCCCCCCCCCCC(=O)O [MA, myristic acid]					dose-dependent induction				
	induced	induced	CCCCCCCCCCCCCCCC(=O)O [PA, palmitic acid]					dose-dependent induction	stimulated	induced		
	induced	induced	CCCCCCCCCCCCCCCCCC(=O)O [SA, stearic acid]					dose-dependent induction	stimulated	induced	stimulated	stimulated
